Drawing on patent publication US20070027143A1, “Novel substituted 2,3-benzodiazepine derivatives” (priority 2003, published 2007), this text covers melting point for 30 compounds.

What is called melting point is the temperature, or range, at which the solid turns liquid. Turning to `CC1Cc2cc3c(cc2C(c2ccc(N)cc2)=NN1C1=NN=C(NC2CC2)[SH]1C)OCO3` (racemic) [Example 92, (±)-5-(4-Aminophenyl)-7-(5-cyclopropylamino-methyl-1,3,4-thiadiazol-2-yl)-8-methyl-8,9-dihydro-7H-1,3-dioxolo[4,5-h][2,3]benzodiazepine], the melting point lay within 135 to 138 °C.

Consider `CC1Cc2ccc(Cl)cc2C(c2ccc(N)cc2)=NN1c1nncs1` (racemic) [Example 93, (±)-1-(4-Aminophenyl)-8-chloro-4-methyl-3-(1,3,4-thiadiazol-2-yl)-4,5-dihydro-3H-[2,3]benzodiazepine], for which the melting point was 125 to 128 °C.

`Cc1nnc(N2N=C(c3ccc(N)cc3)c3cc(Cl)ccc3CC2C)s1` (racemic) [Example 94, (±)-1-(4-Aminophenyl)-8-chloro-4-methyl-3-(5-methyl-1,3,4-thiadiazol-2-yl)-4,5-dihydro-3H-[2,3]benzodiazepine] gave a melting point of 131 to 133 °C.

Consider `Cc1nnc(N2N=C(c3ccc(N)c(C)c3)c3cc4c(cc3CC2C)OCO4)s1` (racemic) [Example 95, (±)-5-(4-Amino-3-methylphenyl)-8-methyl-7-(5-methyl-1,3,4-thiadiazol-2-yl)-8,9-dihydro-7H-1,3-dioxolo-[4,5-h][2,3]benzodiazepine], for which the melting point lay within 140 to 144 °C.

`Cc1nnc(N2N=C(c3cccc(N)c3)c3cc4c(cc3CC2C)OCO4)s1` (racemic) [Example 97, (±)-5-(3-Aminophenyl)-8-methyl-7-(5-methyl-1,3,4-thiadiazol-2-yl)-8,9-dihydro-7H-1,3-dioxolo-[4,5-h][2,3]benzodiazepine]: the melting point is 197 to 198 °C.

The compound `COc1ccc2c(c1)C(c1ccc(N)cc1)=NN(c1nnc(C)s1)C(C)C2` (racemic) [Example 98, (±)-1-(4-Aminophenyl)-4-methyl-3-(5-methyl-1,3,4-thiadiazol-2-yl)-8-methoxy-4,5-dihydro-3H-[2,3]benzodiazepine] returned a melting point of 180 to 184 °C.

The compound `CC1=NN=C(N2N=C(c3ccc(N)cc3)c3cc4c(cc3CC2C)OCO4)SC1` (racemic) [Example 99, (±)-5-(4-Aminophenyl)-8-methyl-7-(5-methyl-6H-1,3,4-thiadiazin-2-yl)-8,9-dihydro-7H-1,3-dioxolo-[4,5-h][2,3]benzodiazepine] gave a melting point of 154 to 157 °C.

`CC1Cc2cc3c(cc2C(c2ccc(N)cc2)=NN1C1=NNC(=O)CS1)OCO3` (racemic) [Example 100, (±)-5-(4-Aminophenyl)-7-(5,6-dihydro-5-oxo-4H-1,3,4-thiadiazin-2-yl)-8-methyl-8,9-dihydro-7H-1,3-dioxolo[4,5-h][2,3]benzodiazepine] had a melting point of 172 to 176 °C.

Compound `CC1Cc2cc3c(cc2C(c2ccc(N)cc2)=NN1c1n[nH]c(=O)s1)OCO3` (racemic) [Example 101, (±)-5-(4-Aminophenyl)-8-methyl-7-(5-oxo-4,5-dihydro-1,3,4-thiadiazol-2-yl)-8,9-dihydro-7H-1,3-dioxolo-[4,5-h][2,3]benzodiazepine] had a melting point of 263 to 264 °C.

Compound `CC1Cc2cc3c(cc2C(c2ccc(N)cc2)=NN1c1nc(=O)n(C)s1)OCO3` (racemic) [Example 103, (±)-5-(4-Aminophenyl)-8-methyl-7-(2-methyl-3-oxo-2,3-dihydro-1,2,4-thiadiazol-5-yl)-8,9-dihydro-7H-1,3-dioxolo[4,5-h][2,3]benzodiazepine] yielded a melting point of 213 °C.

`CC1Cc2cc3c(cc2C(c2ccc(N)cc2)=NN1c1nc(C(=O)O)cs1)OCO3` (racemic) [Example 106, (±)-5-(4-Aminophenyl)-7-(4-carboxy-thiazol-2-yl)-8-methyl-8,9-dihydro-7H-1,3-dioxolo-[4,5-h][2,3]benzodiazepine]: the melting point is > 260 °C (dec.).

As for `CC1Cc2cc3c(cc2C(c2ccc(N)cc2)=NN1c1nnn[nH]1)OCO3` (racemic) [Example 107, (±)-5-(4-Aminophenyl)-8-methyl-7-(5-tetrazolyl)-8,9-dihydro-7H-1,3-dioxolo[4,5-h][2,3]benzodiazepine], the melting point is over 360 °C.

As to `Cc1nc(N2N=C(c3ccc(N)cc3)c3cc4c(cc3CC2C)OCO4)no1` (racemic) [Example 109, (±)-5-(4-Aminophenyl)-8-methyl-7-(5-methyl-1,2,4-oxadiazol-3-yl)-8,9-dihydro-7H-1,3-dioxolo-[4,5-h][2,3]benzodiazepine], the melting point lay in the range of 130 to 135 °C.

With `Cc1nc(N2N=C(c3ccc(N)cc3)c3cc4c(cc3CC2C)OCO4)cs1` (racemic) [Example 110, (±)-5-(4-Aminophenyl)-8-methyl-7-(2-methyl-thiazol-4-yl)-8,9-dihydro-7H-1,3-dioxolo-[4,5-h][2,3]benzodiazepine], the melting point is 132 to 135 °C.

As for `CC1Cc2cc3c(cc2C(c2ccc(N)cc2)=NN1c1ncccn1)OCO3` (racemic) [Example 111, (±)-5-(4-Aminophenyl)-8-methyl-7-(2-pyrimidinyl)-8,9-dihydro-7H-1,3-dioxolo[4,5-h][2,3]benzodiazepine], the melting point lay within 233 to 235 °C.

As to `CC1Cc2cc3c(cc2C(c2ccc(N)cc2)=NN1c1ccc(Cl)nn1)OCO3` (racemic) [Example 112, (±)-5-(4-Aminophenyl)-7-(3-chloropyridazin-6-yl)-8-methyl-8,9-dihydro-7H-1,3-dioxolo-[4,5-h][2,3]benzodiazepine], the melting point fell in the range of 164 to 166 °C.

With `CC1Cc2cc3c(cc2C(c2ccc(N)cc2)=NN1C1N=CNN1)OCO3` (racemic) [Example 113, (±)-5-(4-Aminophenyl)-8-methyl-7-(1H(2H)1,2,4-triazol-3-yl)-8,9-dihydro-7H-1,3-dioxolo-[4,5-h][2,3]benzodiazepine], the melting point fell in the range of 178 to 181 °C.

`CC1=NC(N2N=C(c3ccc(N)cc3)c3cc4c(cc3CC2C)OCO4)NN1` (racemic) [Example 114, (±)-5-(4-Aminophenyl)-8-methyl-7-(5-methyl-1H(2H)-1,2,4-triazol-3-yl)-8,9-dihydro-7H-1,3-dioxolo-[4,5-h][2,3]benzodiazepine]: the melting point was 166 to 169 °C.

Compound `CC1Cc2cc3c(cc2C(c2ccc(N)cc2)=NN1c1ncnn1C)OCO3` (racemic) [Example 115, (±)-5-(4-Aminophenyl)-8-methyl-7-(2-methyl-2H-1,2,4-triazol-3-yl)-8,9-dihydro-7H-1,3-dioxolo-[4,5-h][2,3]benzodiazepine] gave a melting point of 182 to 183 °C.

The compound `CC1Cc2cc3c(cc2C(c2ccc(N)cc2)=NN1c1ncn(C)n1)OCO3` (racemic) [Example 116, (±)-5-(4-Aminophenyl)-8-methyl-7-(1-methyl-1H-1,2,4-triazol-3-yl)-8,9-dihydro-7H-1,3-dioxolo-[4,5-h][2,3]benzodiazepine] came in with a melting point of 165 to 168 °C.

As to `Cc1nc(N2N=C(c3ccc(N)cc3)c3cc4c(cc3CC2C)OCO4)n(C)n1` (racemic) [Example 117, (±)-5-(4-Aminophenyl)-8-methyl-7-(2,5-dimethyl-2H-1,2,4-triazol-3-yl)-8,9-dihydro-7H-1,3-dioxolo-[4,5-h][2,3]benzodiazepine], the melting point lay within 185 to 187 °C.

`CC(=O)Nc1ccc(C2=NN(c3ncc(C)s3)C(C)Cc3cc4c(cc32)OCO4)cc1` (racemic) [Example 120, (±)-5-(4-Acetylaminophenyl)-8-methyl-7-(5-methyl-thiazol-2-yl)-8,9-dihydro-7H-1,3-dioxolo-[4,5-h][2,3]benzodiazepine] came in with a melting point of 176 to 179 °C.

Take `CC(=O)Nc1ccc(C2=NN(C3=NCCS3)C(C)Cc3cc4c(cc32)OCO4)cc1` (racemic) [Example 122, (±)-5-(4-Acetylaminophenyl)-7-(4,5-dihydro-thiazol-2-yl)-8-methyl-8,9-dihydro-7H-1,3-dioxolo-[4,5-h][2,3]benzodiazepine]: the melting point was 211 to 213 °C.

For `CC(=O)Nc1ccc(C2=NN(C3=NCCO3)C(C)Cc3cc4c(cc32)OCO4)cc1` (racemic) [Example 127, (±)-5-(4-Acetylaminophenyl)-7-(4,5-dihydro-oxazol-2-yl)-8-methyl-8,9-dihydro-7H-1,3-dioxolo-[4,5-h][2,3]benzodiazepine], the melting point was in the range of 124 to 128 °C.

As for `CC(=O)Nc1ccc(C2=NN(c3ncccn3)C(C)Cc3cc4c(cc32)OCO4)cc1` (racemic) [Example 128, (±)-5-(4-Acetylaminophenyl)-8-methyl-7-(2-pyrimidinyl)-8,9-dihydro-7H-1,3-dioxolo-[4,5-h][2,3]benzodiazepine], the melting point fell in the range of 162 to 163 °C.

`CC(=O)Nc1ccc(C2=NN(c3ccc(Cl)nn3)C(C)Cc3cc4c(cc32)OCO4)cc1` (racemic) [Example 129, (±)-5-(4-Acetylaminophenyl)-7-(3-chloro-pyridazin-6-yl)-8-methyl-8,9-dihydro-7H-1,3-dioxolo-[4,5-h][2,3]benzodiazepine] yielded a melting point of 164 to 170 °C.

`CC(=O)Nc1ccc(C2=NN(c3nnc(C)s3)C(C)Cc3cc4c(cc32)OCO4)cc1C` (racemic) [Example 131, (±)-5-(4-Acetylamino-3-methylphenyl)-8-methyl-7-(5-methyl-1,3,4-thiadiazol-2-yl)-8,9-dihydro-7H-1,3-dioxolo[4,5-h][2,3]benzodiazepine] had a melting point of 258 to 262 °C.

`Cc1cc(N2N=C(c3ccc(N)cc3)c3cc4c(cc3CC2C)OCO4)on1` (racemic) [Example 185, (±)-5-(4-Aminophenyl)-8-methyl-7-(3-methyl-isoxazol-5-yl)-8,9-dihydro-7H-1,3-dioxolo-[4,5-h][2,3]benzodiazepine] registered a melting point of 100 to 103 °C.

Consider `Cc1ncc(N2N=C(c3ccc(N)cc3)c3cc4c(cc3CC2C)OCO4)o1` (racemic) [Example 187, (±)-5-(4-Aminophenyl)-8-methyl-7-(2-methyl-1,3-oxazol-5-yl)-8,9-dihydro-7H-1,3-dioxolo-[4,5-h][2,3]benzodiazepine], for which the melting point lay in the range of 148 to 150 °C.

The compound `CC1Cc2cc3c(cc2C(c2ccc(N)cc2)=NN1C1=NC(=O)C(C)(C)S1)OCO3` (racemic) [Example 193, (±)-5-(4-Aminophenyl)-8-methyl-7-(5,5-dimethyl-4-oxo-4,5-dihydrothiazol-2-yl)-8,9-dihydro-7H-1,3-dioxolo-[4,5-h][2,3]benzodiazepine] gave a melting point of 124 to 130 °C.
